According to patent publication US6514997B2, “Antipicornaviral compounds and compositions, their pharmaceutical uses, and materials for their synthesis” (Agouron Pharmaceuticals, Inc., priority 1999, dated 2003):
Read-outs that look alike come from different tables or passages of the source.

Tests used:
[1] = system: strains of human rhinovirus (HRV); assay: Antirhinoviral H1-HeLa cell culture assay (XTT cell protection, EC50), other HRV strains; assay type: cell-based, human rhinovirus in H1-HeLa cells; conditions: read-out: EC50
Procedure, shortened: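 Protection of H1-HeLa cells from rhinovirus was scored two days post-infection via XTT dye reduction read at 450/650 nm, alongside mock-infected cells for toxicity. CC50/EC50 gives the therapeutic index.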

[2] = system: H1-HeLa cells; assay: Cytotoxicity (CC50) in mock-infected H1-HeLa cells, XTT dye reduction; assay type: cell-based, human
Procedure, shortened: (§1)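 XTT dye reduction (formazan, 450/650 nm) in H1-HeLa cells, mock-infected, gave CC50.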

[3] = as above; assay type: cell-based, human; conditions: human; for CC50 at 1 day: CVB3
Procedure, shortened: as §1

[4] = system: HRV-14; assay: Antirhinoviral H1-HeLa cell culture assay (XTT cell protection, EC50), HRV-14; assay type: cell-based, human rhinovirus (HRV) serotype-14 in H1-HeLa cells
Procedure, shortened: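 XTT dye reduction (450/650 nm) measured survival of H1-HeLa cells two days after HRV-14 infection at m.o.i. 0.13 in the presence of compound, giving EC50. The therapeutic index is CC50 divided by EC50.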

[5] = biological target: T1, Recombinant rhinovirus 3C protease, serotype 14 (Human rhinovirus 14, UniProt P03303); assay: Inhibition of rhinovirus 3C protease (FRET assay, kobs/[I]), serotype 14; assay type: biochemical; conditions: pH 7.6; HRV-14 3C protease; read-out: kobs/[I] (3C protease inhibition activity)
T1 construct: Recombinant rhinovirus 3C proteases; made in house
Procedure, shortened: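 kobs/[I] values came from progress curves of reactions started by adding 50-100 nM protease to buffer (50 mM tris pH 7.6, 1 mM EDTA, 2% DMSO) containing compound and ~1 μM quenched DABCYL-EDANS substrate. Rising EDANS fluorescence reported cleavage.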

[6] = system: MRC-5 cells; assay: Cytotoxicity (CC50) in uninfected MRC-5 cells, XTT dye reduction; assay type: cell-based, human; conditions: ENT-70 row
Description: (§2) Echovirus type 11 (ECHO 11) was purchased from ATCC (Rockville, Md.). Virus stocks were propagated and antiviral assays were performed in MRC-5 cells (ATCC). Cells were grown in minimal essential medium with 10% fetal bovine serum (Life Technologies, Gaithersburg, Md.). The ability of the compounds of this invention to protect cells against ECHO 11 infection was measured by the XTT dye reduction method (Weislow et al., J. Natl. Cancer Inst. (1989), vol. 81, 577-586). MRC-5 cells were infected with ECHO 11 at an m.o.i. of 0.003 or 0.004, respectively, or mock-infected with medium only. Infected or uninfected cells were added at 1×10^4 cells per well and incubated with appropriate concentrations of compound. Four days later, XTT/PMS was added to test plates, and the amount of formazan produced was quantified spectrophotometrically at 450/650 nm. […] The therapeutic index (TI) was calculated by dividing the CC50 by the EC50. Activity of the compounds against enterovirus type 70 (EV 70) may be measured by the same assay as described above in this section. Enterovirus type 70 (EV 70) may be obtained from the American Type Culture Collection ATCC (Rockville, Md.).

[7] = as above; assay type: cell-based, human; conditions: human, uninfected (mock-infected) MRC-5 cells; ECHO-11 (EV-11) row
Description: as §2

[8] = system: Echovirus type 11 (ECHO 11); assay: Anti-echoviral cell culture assay (XTT, EC50), ECHO 11; assay type: cell-based, echovirus 11 in MRC-5 cells; conditions: Enterovirus B, MRC5
Description: (§3) Anti-Echoviral and Anti-Enteroviral Cell Culture Assays
as §2

[9] = system: enterovirus type 70 (EV 70); assay: Anti-enteroviral cell culture assay (XTT, EC50), EV 70; assay type: cell-based, enterovirus 70 in MRC-5 cells; conditions: Enterovirus D, MRC5; ENT-70, MRC-5 cells
Description: as §3, §2

[10] = system: Coxsackievirus type A-21 (CAV-21); assay: Anticoxsackieviral cell culture assay (XTT, EC50), CAV-21; assay type: cell-based, coxsackievirus A-21 in H1-HeLa cells
Description: (§4) Anticoxsackieviral Cell Culture Assay:
(§5) Coxsackievirus types A-21 (CAV-21) and B3 (CVB3) were purchased from American Type Culture Collection (ATCC, Rockville, Md.). Virus stocks were propagated and antiviral assays were performed in H1-HeLa cells (ATCC). Cells were grown in minimal essential medium with 10% fetal bovine serum (Life Technologies, Gaithersburg, Md.). The ability of the compounds of this invention to protect cells against either CAV-21 or CVB3 infection was measured by the XTT dye reduction method. This method is described in Weislow et al., J. Natl. Cancer Inst. (1989), vol. 81, 577-586. H1-HeLa cells were infected with CAV-21 or CVB3 at a multiplicity of infection (m.o.i.) of 0.025 or 0.075, respectively, or mock-infected with medium only. H1-HeLa cells were plated at 4×10^4 cells per well in a 96-well plate and incubated with appropriate concentrations of the test compound. One day (CVB3) or two days (CAV-21) later, XTT/PMS was added to test plates and the amount of formazan produced was quantified spectrophotometrically at 450/650 nm. […] The therapeutic index (TI) was calculated by dividing the CC50 by the EC50.

[11] = system: Coxsackievirus type B3 (CVB3); assay: Anticoxsackieviral cell culture assay (XTT, EC50), CVB3; assay type: cell-based, coxsackievirus B3 in H1-HeLa cells
Description: as §4, §5

[12] = Human rhinovirus sp., HRV3, H1-HeLa, HRV-3
[13] = Human rhinovirus sp., HRV9, H1-HeLa, HRV-9
[14] = Human rhinovirus sp., HRV10, H1-HeLa, HRV-10
[15] = Human rhinovirus sp., HRV13, H1-HeLa, HRV-13
[16] = Human rhinovirus sp., HRV16, H1-HeLa, HRV-16
[17] = Human rhinovirus sp., HRV25, H1-HeLa, HRV-25
[18] = Human rhinovirus sp., HRV39, H1-HeLa, HRV-39
[19] = Human rhinovirus sp., HRV78, H1-HeLa, HRV-78
[20] = H1-HeLa cells, mock-infected, HRV-14
[21] = mock-infected (uninfected) H1-HeLa cells, CAV-21
[22] = mock-infected (uninfected) H1-HeLa cells
[23] = Rhinovirus B, HRV14, H1-HeLa, HRV-14, read-out: EC50
[24] = CVB3, H1-HeLa cells, read-out: EC50

T1 sequence (P03303 1538-1719): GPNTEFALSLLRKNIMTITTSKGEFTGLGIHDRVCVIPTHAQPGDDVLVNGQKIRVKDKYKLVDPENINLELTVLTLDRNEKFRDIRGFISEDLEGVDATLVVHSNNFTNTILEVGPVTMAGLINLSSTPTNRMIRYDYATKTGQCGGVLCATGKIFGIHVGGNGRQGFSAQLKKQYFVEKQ

Row | Structure (SMILES) | EC50 [1, 12] [nM] | EC50 [1, 13] [nM] | EC50 [1, 15] [nM] | EC50 [1, 16] [nM] | EC50 [1, 18] [nM] | EC50 [1, 19] [nM] | CC50 ([2]; HRV-3) [nM] | CC50 ([2]; HRV-9) [nM] | CC50 ([2]; HRV-13) [nM] | CC50 ([2]; HRV-16) [nM] | CC50 ([2]; HRV-39) [nM] | CC50 ([2]; HRV-78) [nM] | CC50 at 2 days [3, 20] [nM] | EC50 ([4]; Rhinovirus B, HRV14, H1-HeLa) [nM] | kinact/KI [5] [M⁻¹ s⁻¹] | also measured
1 | Cc1cc(C(=O)Nc2cccn([C@@H](Cc3ccc(F)c(F)c3)C(=O)N[C@H](/C=C/C(=O)OC3CCC3)C[C@@H]3CCNC3=O)c2=O)no1 [Compound 58, trans-(2′S,3″″″S,4S)-4-[3′-(3″,4″-Difluorophenyl)-2′-(3′″-{[1″″-(5′″″-methylisoxazol-3′″″-yl)methanoyl]amino}-2″″-oxo-2″″H-pyridin-1″″-yl)propanoylamino]-5-(2″″″-oxopyrrolidin-3″″″-yl)pent-2-enoic Acid Cyclobutyl Ester] | 5 | 47 | 24 | 14 | 20 | 14 | > 10000 | > 10000 | > 10000 | > 10000 | > 10000 | > 10000 | > 10000 | 3 | 2.2e+06 | EC50 ([1]; H1-HeLa, HRV-1A): 14 nM; EC50 ([1]; H1-HeLa, HRV-2): 13 nM; EC50 ([1]; H1-HeLa, HRV-23): 8 nM; EC50 ([1]; Human rhinovirus sp., H1-HeLa, HRV-Hanks): 21 nM; EC50 [1, 14]: 11 nM; EC50 ([1]; Human rhinovirus sp., HRV11, H1-HeLa, HRV-11): 5 nM; EC50 ([1]; Human rhinovirus sp., HRV19, H1-HeLa, HRV-19): 17 nM; EC50 [1, 17]: 16 nM; CC50 ([2]; HRV-1A): > 10000 nM; CC50 ([2]; HRV-2): > 10000 nM; CC50 ([2]; HRV-10): > 10000 nM; CC50 ([2]; HRV-11): > 10000 nM; CC50 ([2]; HRV-19): > 10000 nM; CC50 ([2]; HRV-23): > 10000 nM; CC50 ([2]; HRV-25): > 10000 nM; CC50 ([2]; HRV-Hanks): > 10000 nM
2 | CC[C@@H](C(=O)N[C@H](/C=C/C(=O)OC1CCCCC1)C[C@@H]1CCNC1=O)n1cccc(NC(=O)c2cc(C)on2)c1=O [Compound 60, trans-(2′S,3′″″S,4S)-4-[2′-(3″-{[1′″-(5″″-Methylisoxazol-3″″-yl)methanoyl]amino}-2′″oxo-2′″H-pyridin-1′″-yl)butanoylamino]-5-(2′″″-oxopyrrolidin-3′″″-yl)pent-2-enoic Acid Cyclohexyl Ester] | – | 516 | – | – | – | – | – | > 10000 | – | – | – | – | > 10000 | 173 | 23000 | EC50 ([1]; H1-HeLa, HRV-1A): 558 nM; EC50 [1, 14]: 368 nM; EC50 [1, 17]: 251 nM; CC50 ([2]; HRV-1A): > 10000 nM; CC50 ([2]; HRV-10): > 10000 nM; CC50 ([2]; HRV-25): > 10000 nM
3 | Cc1cc(C(=O)Nc2cccn([C@@H](Cc3ccccc3)C(=O)N[C@H](/C=C/C(=O)OC(C)C)C[C@@H]3CCNC3=O)c2=O)no1 [Compound 66, trans-(2′S,3′″″S,4S)-4-[2′-(3″-{[1′″-(5″″-Methylisoxazol-3″″-yl)methanoyl]amino}-2′″-oxo-2′″H-pyridin-1′″-yl)-3″-phenylpropanoylamino]-5-(2′″″-oxopyrrolidin-3′″″-yl)pent-2-enoic Acid Isopropyl Ester] | 56 | 196 | 57 | 11 | 22 | 15 | > 10000 | > 10000 | > 10000 | > 10000 | > 10000 | > 10000 | > 10000 | 155 | 480000 | –
4 | Cc1cc(C(=O)Nc2cccn([C@@H](Cc3ccc(F)cc3)C(=O)N[C@H](/C=C/C(=O)OC(C)C)C[C@@H]3CCNC3=O)c2=O)no1 [Compound 67, trans-(2′S,3″″″S)-4-[3′-(4″-Fluorophenyl)-2′-(3′″-{[1″″-(5′″″-methylisoxazol-3′″″-yl)methanoyl]amino}-2″″-oxo-2″″H-pyridin-1″″-yl)propanoylamino]-5-(2″″″-oxopyrrolidin-3″″″-yl)pent-2-enoic Acid Isopropyl Ester] | 19 | 162 | 162 | 33 | 38 | 48 | > 10000 | > 10000 | > 10000 | > 10000 | > 10000 | > 10000 | > 10000 | 57 | 462000 | –
5 | CCOC(=O)c1ccc(OCCC2CCN(c3ccc(C)nn3)CC2)cc1 [Pirodavir, reference compound] | – | – | – | – | – | – | – | – | – | – | – | – | > 10000 | – | – | CC50 at 2 days [3, 21]: > 100000 nM; CC50 at 1 day [3, 22]: > 100000 nM; CC50 [6]: > 10000 nM; CC50 at 4 days [7]: > 10000 nM; EC50 ([8]; ECHO-11 (also printed EV-11), MRC-5 cells, read-out: EC50): 3700 nM; EC50 [4, 23]: 30 nM; EC50 [9]: 60 nM; EC50 ([10]; Coxsackievirus, CAV-21, H1-HeLa cells, read-out: EC50): > 100000 nM; EC50 [11, 24]: > 100000 nM
6 | Cc1cc(CCCOc2c(C)cc(-c3noc(C(F)(F)F)n3)cc2C)on1 [Pleconaril, reference compound] | – | – | – | – | – | – | – | – | – | – | – | – | > 10000 | – | – | CC50 at 2 days [3, 21]: > 10000 nM; CC50 at 1 day [3, 22]: > 10000 nM; CC50 at 4 days [7]: > 10000 nM; EC50 [8]: 160 nM; EC50 [4, 23]: 10 nM; EC50 ([10]; Coxsackievirus, H1-HeLa): 90 nM; EC50 ([11]; H1-HeLa): > 10000 nM
7 | Cc1cc(CCCCCOc2c(Cl)cc(C3=NCCO3)cc2Cl)on1 [WIN 54954, reference compound] | – | – | – | – | – | – | – | – | – | – | – | – | – | – | – | CC50 ([2]; CAV-21): > 100000 nM; CC50 ([2]; CVB3): > 100000 nM; CC50 ([2]; HRV-14): > 63000 nM; EC50 ([4]; HRV-14, read-out: EC50): 2130 nM; EC50 ([10]; CAV-21, H1-HeLa cells, read-out: EC50): > 100000 nM; EC50 [11, 24]: > 100000 nM
